Molecules are shown by their SMILES.

The target of assay [1] is T1, Recombinant human TDO comprising amino acids 19-407 (Homo sapiens, UniProt P48775).
T1 construct: Recombinant human TDO comprising amino acids 19-407 with a N-terminal hexahistidine tag; hexahistidine (His6) (N); made in house; host or cells: E. coli
The experiment in a line: TDO2 enzymatic assay (NFK quantified by LCMS). It counts as biochemical. The settings on record: 15 nM enzyme, 200 μM L-tryptophan, pH7, 30 minutes pre-incubation at RT; mean values when measured multiple times; read-out: hTDO activity (IC50 in nM). Summed up: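 NFK formed over 30 min at RT from 200 μM L-tryptophan was measured by LCMS, normalized to d5-tryptophan, after compound (0.5 nM–10 μM, duplicates, 0.6% DMSO) was preincubated 30 min with 15 nM recombinant His-tagged TDO 19-407 in phosphate buffer pH 7. IC50 from four-parameter logistic fit; repeats averaged.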

Assay [2] concerns the target T2, Recombinant full-length human IDO1 (Homo sapiens, UniProt P14902).
T2 construct: Recombinant full-length human IDO1 with a N-terminal hexahistidine tag; hexahistidine (His6) (N); made in house; host or cells: E. coli
The experiment in a line: IDO1 enzymatic assay (NFK quantified by LCMS). It counts as biochemical. The settings on record: 2 nM enzyme, 5 μM L-tryptophan, pH6.5, 30 minutes pre-incubation at RT; mean values when measured multiple times; read-out: hIDO activity (IC50 in nM). Summed up:
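IC50 comes from four-parameter logistic fits of duplicate data, with NFK quantified by LCMS and normalized to L-Trp-(indole-d5). Compound (0.5 nM–10 μM) was preincubated 30 min at RT with 2 nM E. coli-expressed IDO1 before a 30 min reaction with 5 μM tryptophan in pH 6.5 buffer containing ascorbate and methylene blue.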

T2 sequence (P14902 whole entry): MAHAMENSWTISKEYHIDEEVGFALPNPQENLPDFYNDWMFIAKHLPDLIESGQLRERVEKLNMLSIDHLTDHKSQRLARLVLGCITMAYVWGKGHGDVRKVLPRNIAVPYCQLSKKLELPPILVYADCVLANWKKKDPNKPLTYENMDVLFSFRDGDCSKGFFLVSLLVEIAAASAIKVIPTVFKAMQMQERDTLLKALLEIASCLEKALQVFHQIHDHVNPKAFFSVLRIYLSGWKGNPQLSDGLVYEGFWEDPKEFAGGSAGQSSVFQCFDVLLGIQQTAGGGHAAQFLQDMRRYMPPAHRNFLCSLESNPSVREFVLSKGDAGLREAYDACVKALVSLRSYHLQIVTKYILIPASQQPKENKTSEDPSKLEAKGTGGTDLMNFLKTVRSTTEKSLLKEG
T1 sequence (P48775 19-406 limits assumed): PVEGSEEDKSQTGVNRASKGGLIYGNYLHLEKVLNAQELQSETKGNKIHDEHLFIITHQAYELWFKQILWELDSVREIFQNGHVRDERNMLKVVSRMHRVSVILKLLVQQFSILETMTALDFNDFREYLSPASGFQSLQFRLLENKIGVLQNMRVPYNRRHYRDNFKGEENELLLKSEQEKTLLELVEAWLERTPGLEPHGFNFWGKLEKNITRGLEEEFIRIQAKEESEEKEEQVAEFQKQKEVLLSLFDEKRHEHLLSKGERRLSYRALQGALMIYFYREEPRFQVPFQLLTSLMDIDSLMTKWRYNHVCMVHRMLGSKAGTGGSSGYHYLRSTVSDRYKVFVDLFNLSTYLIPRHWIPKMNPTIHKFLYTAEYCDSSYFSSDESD

Broadly, the IC50 is the concentration that inhibits the measured activity by half. On to `NS(=O)(=O)CCCOc1ccc(-n2cc(C(O)c3c(C4CC4)sc4cncn34)nn2)cc1` (racemic) [Example 206, rac-3-(4-{4-[(2-Cyclopropyl-imidazo[5,1-b]thiazol-3-yl)-hydroxy-methyl]-[1,2,3]triazol-1-yl}-phenoxy)-propane-1-sulfonic acid amide], for which the IC50 was over 10200 nM in assay [1] and 7.11 nM in assay [2].
Consider `Oc1ccc(-n2cc(C(O)c3c(C4CC4)sc4cncn34)nn2)cc1F` (racemic) [Example 150, rac-4-{4-[(2-Cyclopropyl-imidazo[5,1-b]thiazol-3-yl)-hydroxy-methyl]-[1,2,3]triazol-1-yl}-2-fluoro-phenol], for which the IC50 was 9290 nM in assay [1] and 4.83 nM in assay [2].
For `CC(C)(O)CCOc1ccc(-n2cc([C@H](O)c3c(C4CC4)sc4cncn34)nn2)cc1Cl` [Example 277, 4-(2-Chloro-4-{4-[(R)-(2-cyclopropyl-imidazo[5,1-b]thiazol-3-yl)-hydroxy-methyl]-[1,2,3]triazol-1-yl}-phenoxy)-2-methyl-butan-2-ol] the same measures were over 10200 nM and 7.12 nM.
For `CC(C)C(=O)Nc1ccc(-n2cc(C(O)c3c(C4CC4)sc4cncn34)nn2)cc1Cl` (racemic) [Example 284, rac-N-(2-Chloro-4-{4-[(2-cyclopropyl-imidazo[5,1-b]thiazol-3-yl)-hydroxy-methyl]-[1,2,3]triazol-1-yl}-phenyl)-isobutyramide], the IC50 in assay [1] was over 10200 nM; in assay [2], 273 nM.
In the case of `Oc1ccc(-n2cc(C(O)c3c(C4CC4)sc4cncn34)nn2)cc1OC(F)(F)F` (racemic) [Example 210, rac-4-{4-[(2-Cyclopropyl-imidazo[5,1-b]thiazol-3-yl)-hydroxy-methyl]-[1,2,3]triazol-1-yl}-2-trifluoromethoxy-phenol], the figures for the IC50 in assay [1] and in assay [2] were over 10200 nM and 23.5 nM, respectively.
For `OC(c1cn(-c2ccnc3ccccc23)nn1)c1c(C2CC2)sc2cncn12` (racemic) [Example 25, rac-(2-Cyclopropyl-imidazo[5,1-b]thiazol-3-yl)-(1-quinolin-4-yl-1H-[1,2,3]triazol-4-yl)-methanol] the same measures were over 10200 nM and 18.3 nM.
In the case of `CN(C)S(=O)(=O)c1ccc(-n2cc(C(O)c3c(C4CC4)sc4cncn34)nn2)cc1` (racemic) [Example 236, rac-4-{4-[(2-Cyclopropyl-imidazo[5,1-b]thiazol-3-yl)-hydroxy-methyl]-[1,2,3]triazol-1-yl}-N,N-dimethyl-benzenesulfonamide], the IC50 in assay [1] was over 10200 nM; in assay [2], 105 nM.
Taken in the same sequence, the figures for `CCc1sc2cncn2c1C(O)c1cn(-c2cc(F)c(O)cc2F)nn1` (racemic) [Example 332, rac-4-{4-[(2-Ethyl-imidazo[5,1-b]thiazol-3-yl)-hydroxy-methyl]-[1,2,3]triazol-1-yl}-2,5-difluoro-phenol] were 2820 nM and 5.37 nM.
Regarding `COC(=O)c1cc(-n2cc(C(O)c3c(C4CC4)sc4cncn34)nn2)cnc1OC` (racemic) [Example 70, rac-5-{4-[(2-Cyclopropyl-imidazo[5,1-b]thiazol-3-yl)-hydroxy-methyl]-[1,2,3]triazol-1-yl}-2-methoxy-nicotinic acid methyl ester], the IC50 in assay [1] was over 10200 nM; in assay [2] it was 201 nM.
As for `CCc1sc2cncn2c1C(O)c1cn(-c2ccc(S(N)(=O)=O)cc2)nn1` (racemic) [Example 240, rac-4-{4-[(2-Ethyl-imidazo[5,1-b]thiazol-3-yl)-hydroxy-methyl]-[1,2,3]triazol-1-yl}-benzenesulfonamide], the IC50 worked out at 7480 nM in assay [1] and 28.3 nM in assay [2].
On to `Oc1ccc(-n2cc(C(O)c3c(C4CC4)sc4cncn34)nn2)cc1Cl` (racemic) [Example 148, rac-2-Chloro-4-{4-[(2-cyclopropyl-imidazo[5,1-b]thiazol-3-yl)-hydroxy-methyl]-[1,2,3]triazol-1-yl}-phenol], for which the values for the IC50 in assay [1] and in assay [2] were 5130 nM and 4.31 nM, respectively.
For `CC1(c2sc3cncn3c2C(O)c2cn(-c3ccc(O)c(Cl)c3)nn2)CC1` (racemic) [Example 324, rac-2-Chloro-4-(4-{hydroxy-[2-(1-methyl-cyclopropyl)-imidazo[5,1-b]thiazol-3-yl]-methyl}-[1,2,3]triazol-1-yl)-phenol] the same measures were 9820 nM and 12.1 nM.
Take `CC1(c2sc3cncn3c2C(O)c2cn(-c3ccc(OCCCO)c(Cl)c3)nn2)CC1` (racemic) [Example 313, rac-3-[2-Chloro-4-(4-{hydroxy-[2-(1-methyl-cyclopropyl)-imidazo[5,1-b]thiazol-3-yl]-methyl}-[1,2,3]triazol-1-yl)-phenoxy]-propan-1-ol]: the values for the IC50 in assay [1] and in assay [2] were over 10200 nM and 13.7 nM, respectively.
Taken in the same sequence, the figures for `Oc1ccc(-n2cc(C(O)c3c([C@@H]4C[C@@H]4F)sc4cncn34)nn2)cc1Cl` (relative stereo) [Example 325, 2-Chloro-4-(4-{[2-(cis-2-fluoro-cyclopropyl)-imidazo[5,1-b]thiazol-3-yl]-hydroxy-methyl}-[1,2,3]triazol-1-yl)-phenol] were over 10200 nM and 8.31 nM.
Taken in the same sequence, the figures for `COc1ncc(-n2cc(C(O)c3c(C4CC4)sc4cncn34)nn2)cn1` (racemic) [Example 67, rac-(2-Cyclopropyl-imidazo[5,1-b]thiazol-3-yl)-[1-(2-methoxy-pyrimidin-5-yl)-1H-[1,2,3]triazol-4-yl]-methanol] were 9160 nM and 50.2 nM.
As for `OCCCOc1ccc(-n2cc([C@H](O)c3c(C4CC4)sc4cncn34)nn2)cc1Cl` [Example 275, 3-(2-Chloro-4-{4-[(R)-(2-cyclopropyl-imidazo[5,1-b]thiazol-3-yl)-hydroxy-methyl]-[1,2,3]triazol-1-yl}-phenoxy)-propan-1-ol], the values for the IC50 in assay [1] and in assay [2] were over 10200 nM and 7.03 nM, respectively.
For `CCc1sc2cncn2c1C(O)c1cn(-c2ccc3[nH]ccc3c2)nn1` (racemic) [Example 50, rac-(2-Ethyl-imidazo[5,1-b]thiazol-3-yl)-[1-(1H-indol-5-yl)-1H-[1,2,3]triazol-4-yl]-methanol] the same measures were 1970 nM and 9.63 nM.
Taken in the same sequence, the figures for `COc1ccc(-n2cc(C(O)c3c(C4CC4)sc4cncn34)nn2)c(C)c1` (racemic) [Example 306, rac-(2-Cyclopropyl-imidazo[5,1-b]thiazol-3-yl)-[1-(4-methoxy-2-methyl-phenyl)-1H-[1,2,3]triazol-4-yl]-methanol] were over 10200 nM and 17.9 nM.
As for `CCNC(=O)Nc1ccc(-n2cc(C(O)c3c(C4CC4)sc4cncn34)nn2)cc1OC` (racemic) [Example 183, rac-1-(4-{4-[(2-Cyclopropyl-imidazo[5,1-b]thiazol-3-yl)-hydroxy-methyl]-[1,2,3]triazol-1-yl}-2-methoxy-phenyl)-3-ethyl-urea], the values for the IC50 in assay [1] and in assay [2] were over 10200 nM and 15.5 nM, respectively.
Taken in the same sequence, the figures for `CS(=O)(=O)CCOc1ccc(-n2cc(C(O)c3c(C4CC4)sc4cncn34)nn2)cc1` (racemic) [Example 205, rac-(2-Cyclopropyl-imidazo[5,1-b]thiazol-3-yl)-{1-[4-(2-methanesulfonyl-ethoxy)-phenyl]-1H-[1,2,3]triazol-4-yl}-methanol] were over 10200 nM and 626 nM.
